Results published in patent publication US9828379B2 (priority 2013, dated 2017).

Columns and labels:
MAGL [1] = target: T1, MAGL (Mus musculus, UniProt O35678); assay: biochemical; settings: mouse; in vitro competitive ABPP; read-out: Mouse (IC50 value, nM) MAGL
T1 sequence (O35678 1-303): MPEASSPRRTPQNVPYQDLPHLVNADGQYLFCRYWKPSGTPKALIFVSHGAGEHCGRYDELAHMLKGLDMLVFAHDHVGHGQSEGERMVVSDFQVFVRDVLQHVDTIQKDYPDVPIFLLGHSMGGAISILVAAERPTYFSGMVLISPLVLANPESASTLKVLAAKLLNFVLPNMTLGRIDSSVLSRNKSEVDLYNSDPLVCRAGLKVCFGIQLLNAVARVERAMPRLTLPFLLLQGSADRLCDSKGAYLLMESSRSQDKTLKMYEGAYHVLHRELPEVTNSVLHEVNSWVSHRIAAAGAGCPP

FAAH [2] = target: T2, FAAH (Mus musculus, UniProt O08914); assay: biochemical; settings: in vitro competitive ABPP
T2 sequence (O08914 1-579): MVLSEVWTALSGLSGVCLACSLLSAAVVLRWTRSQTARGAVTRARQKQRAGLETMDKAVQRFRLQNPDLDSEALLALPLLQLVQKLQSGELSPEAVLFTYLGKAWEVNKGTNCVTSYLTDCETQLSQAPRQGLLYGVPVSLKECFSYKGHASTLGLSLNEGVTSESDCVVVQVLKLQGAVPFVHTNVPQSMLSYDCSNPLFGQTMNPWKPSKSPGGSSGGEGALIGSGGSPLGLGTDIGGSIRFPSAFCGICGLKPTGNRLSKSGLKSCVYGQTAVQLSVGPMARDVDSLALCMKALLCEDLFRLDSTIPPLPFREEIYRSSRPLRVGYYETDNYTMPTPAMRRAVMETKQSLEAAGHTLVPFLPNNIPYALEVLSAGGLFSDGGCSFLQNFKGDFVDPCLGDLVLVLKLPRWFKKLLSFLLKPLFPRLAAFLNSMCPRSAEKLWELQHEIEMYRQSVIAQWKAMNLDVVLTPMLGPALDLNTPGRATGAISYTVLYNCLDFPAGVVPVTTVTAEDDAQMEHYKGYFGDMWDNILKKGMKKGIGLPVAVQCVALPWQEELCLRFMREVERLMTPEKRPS

ABHD6 [3] = target: T3, ABHD6 (Mus musculus, UniProt Q8R2Y0); assay: biochemical; settings: in vitro competitive ABPP
T3 sequence (Q8R2Y0 1-336): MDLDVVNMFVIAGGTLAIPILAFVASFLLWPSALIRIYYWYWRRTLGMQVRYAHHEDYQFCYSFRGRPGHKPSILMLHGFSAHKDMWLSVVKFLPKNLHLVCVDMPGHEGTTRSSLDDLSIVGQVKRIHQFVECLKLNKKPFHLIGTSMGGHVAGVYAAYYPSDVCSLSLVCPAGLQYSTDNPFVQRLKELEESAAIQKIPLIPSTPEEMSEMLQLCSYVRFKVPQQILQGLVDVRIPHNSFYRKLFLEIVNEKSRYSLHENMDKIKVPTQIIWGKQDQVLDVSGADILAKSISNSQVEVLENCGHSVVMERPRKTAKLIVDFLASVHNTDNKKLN

ABHD6 [4] = target: T3, ABHD6; assay: In vitro competitive activity-based protein profiling (Table 2, % inhibition at 1 μM); type: biochemical; settings: read-out: % Inhibition at 1 μM ABHD6
FAAH [5] = target: T2, FAAH; assay: as above; type: biochemical; settings: read-out: % Inhibition at 1 μM FAAH
Mouse brain MAGL = target: T4, Mouse brain MAGL (Mus musculus, UniProt O35678); assay: Mouse brain proteomes from inhibitor treated mice (oral gavage, ABPP analysis); type: in vivo; settings: p.o., sacrificed 4 h following administration
T4 construct: from tissue; host or cells: brain of wild-type C57Bl/6J mice dosed by oral gavage
T4 sequence (O35678 1-303): T1 sequence (O35678 1-303)

MAGL [6] = target: T1, MAGL; assay: In vitro competitive activity-based protein profiling (Table 2, % inhibition at 1 μM); type: biochemical; settings: read-out: % Inhibition at 1 μM MAGL
Protocol: After 30 min, FP—Rh (1.0 μL, 50 μM in DMSO) was added and the mixture was incubated for another 30 min at 37° C. Reactions were quenched with SDS loading buffer (50 μL-4×) and run on SDS-PAGE.
Cell lysates were diluted with mock proteomes for use in competitive ABPP experiments.

Structure (SMILES)	IC50 (MAGL [1])	IC50 (FAAH [2])	IC50 (ABHD6 [3])	inhibition at 1 µM (ABHD6 [4])	inhibition at 1 µM (FAAH [5])	inhibition at 5 mg/kg (Mouse brain MAGL)	inhibition at 1 µM (MAGL [6])
CCn1cc(CN2CC3CN(C(=O)OC(C(F)(F)F)C(F)(F)F)CC3C2)c(-c2ccccc2N2CCC2)n1 (centres unmarked) [Example 63, 1,1,1,3,3,3-Hexafluoropropan-2-yl 5-([3-[2-(azetidin-1-yl)phenyl]-1-ethyl-1H-pyrazol-4-yl]methyl)-octahydropyrrolo[3,4-c]pyrrole-2-carboxylate]	< 100 nM	> 10000 nM	100 to 1000 nM	25 to 75%	< 25%	≥ 75%	> 75%
CC(C)(C)c1cc(CN2CC3CN(C(=O)OC(C(F)(F)F)C(F)(F)F)CC3C2)n(-c2ccccc2Cl)n1 (centres unmarked) [Example 170, 1,1,1,3,3,3-hexafluoropropan-2-yl 5-[[3-tert-butyl-1-(2-chlorophenyl)-1H-pyrazol-5-yl]methyl]-octahydropyrrolo[3,4-c]pyrrole-2-carboxylate]	< 100 nM	> 10000 nM	1000 to 10000 nM	25 to 75%	< 25%	25 to 75%	> 75%
CS(=O)(=O)N1CC2(CCN(c3ccccc3CN3CC4CN(C(=O)OC(C(F)(F)F)C(F)(F)F)CC4C3)C2)C1 (centres unmarked) [Example 136, 1,1,1,3,3,3-hexafluoropropan-2-yl 5-[(2-[2-methanesulfonyl-2,6-diazaspiro[3.4]octan-6-yl]phenyl)methyl]-octahydropyrrolo[3,4-c]pyrrole-2-carboxylate]	< 100 nM	1000 to 10000 nM	1000 to 10000 nM	< 25%	< 25%	≤ 25%	> 75%
CCc1cc(CN2CC3CN(C(=O)OC(C(F)(F)F)C(F)(F)F)CC3C2)n(-c2ccccc2Cl)n1 (centres unmarked) [Example 169, 1,1,1,3,3,3-hexafluoropropan-2-yl 5-[[1-(2-chlorophenyl)-3-ethyl-1H-pyrazol-5-yl]methyl]-octahydropyrrolo[3,4-c]pyrrole-2-carboxylate]	< 100 nM	1000 to 10000 nM	1000 to 10000 nM	25 to 75%	< 25%	≤ 25%	> 75%
CCn1cc(CN2CC3CN(C(=O)OC(C(F)(F)F)C(F)(F)F)CC3C2)c(-c2cccnc2)n1 (centres unmarked) [Example 71, 1,1,1,3,3,3-Hexafluoropropan-2-yl 5-[[1-ethyl-3-(pyridin-3-yl)-1H-pyrazol-4-yl]methyl]-octahydropyrrolo[3,4-c]pyrrole-2-carboxylate]	< 100 nM	1000 to 10000 nM	1000 to 10000 nM	25 to 75%	< 25%	25 to 75%	> 75%
CCn1cc(CN2CC3CN(C(=O)OC(C(F)(F)F)C(F)(F)F)CC3C2)c(-c2ccc(N3CCCC3)cc2)n1 (centres unmarked) [Example 67, 1,1,1,3,3,3-Hexafluoropropan-2-yl 5-([1-ethyl-3-[4-(pyrrolidin-1-yl)phenyl]-1H-pyrazol-4-yl]methyl)-octahydropyrrolo[3,4-c]pyrrole-2-carboxylate]	< 100 nM	1000 to 10000 nM	1000 to 10000 nM	< 25%	< 25%	25 to 75%	> 75%
CCn1cc(CN2CC3CN(C(=O)OC(C(F)(F)F)C(F)(F)F)CC3C2)c(-c2ccc(N3CCCCC3)cc2)n1 (centres unmarked) [Example 133, 1,1,1,3,3,3-hexafluoropropan-2-yl 5-([1-ethyl-3-[4-(piperidin-1-yl)phenyl]-1H-pyrazol-4-yl]methyl)-octahydropyrrolo[3,4-c]pyrrole-2-carboxylate]	< 100 nM	1000 to 10000 nM	1000 to 10000 nM	< 25%	< 25%	≤ 25%	> 75%
Cc1c(CN2CC3CN(C(=O)OC(C(F)(F)F)C(F)(F)F)CC3C2)cccc1N1CCOCC1 (centres unmarked) [Example 47, 1,1,1,3,3,3-Hexafluoropropan-2-yl 5-[[2-methyl-3-(morpholin-4-yl)phenyl]methyl]-octahydropyrrolo[3,4-c]pyrrole-2-carboxylate]	< 100 nM	1000 to 10000 nM	1000 to 10000 nM	25 to 75%	25 to 75%	≥ 75%	> 75%
O=C(OC(C(F)(F)F)C(F)(F)F)N1CC2CN(Cc3cccc(N4CCOCC4)c3C(F)(F)F)CC2C1 (centres unmarked) [Example 129, 1,1,1,3,3,3-hexafluoropropan-2-yl 5-[[3-(morpholin-4-yl)-2-(trifluoromethyl)phenyl]methyl]-octahydropyrrolo[3,4-c]pyrrole-2-carboxylate]	< 100 nM	1000 to 10000 nM	1000 to 10000 nM	< 25%	< 25%	≥ 75%	> 75%
O=C(OC(C(F)(F)F)C(F)(F)F)N1CC2CN(Cc3cc(CN4CCOCC4)ccc3OC(F)(F)F)CC2C1 (centres unmarked) [Example 188, 1,1,1,3,3,3-hexafluoropropan-2-yl 5-(5-(morpholinomethyl)-2-(trifluoromethoxy)benzyl)hexahydropyrrolo[3,4-c]pyrrole-2(1H)-carboxylate]	< 100 nM	1000 to 10000 nM	1000 to 10000 nM	< 25%	< 25%	≥ 75%	> 75%
CC(=O)N1CC2(CCN(c3ccccc3CN3CC4CN(C(=O)OC(C(F)(F)F)C(F)(F)F)CC4C3)C2)C1 (centres unmarked) [Example 137, 1,1,1,3,3,3-hexafluoropropan-2-yl 5-[(2-[2-acetyl-2,6-diazaspiro[3.4]octan-6-yl]phenyl)methyl]-octahydropyrrolo[3,4-c]pyrrole-2-carboxylate]	< 100 nM	1000 to 10000 nM	1000 to 10000 nM	< 25%	< 25%	≤ 25%	> 75%
CC(C)c1cc(CN2CC3CN(C(=O)OC(C(F)(F)F)C(F)(F)F)CC3C2)n(C2CCOCC2)n1 (centres unmarked) [Example 62, 1,1,1,3,3,3-Hexafluoropropan-2-yl 5-[[1-(oxan-4-yl)-3-(propan-2-yl)-1H-pyrazol-5-yl]methyl]-octahydropyrrolo[3,4-c]pyrrole-2-carboxylate]	< 100 nM	1000 to 10000 nM	1000 to 10000 nM	25 to 75%	< 25%	≥ 75%	> 75%
Cc1ccc(CN2CC3CN(C(=O)OC(C(F)(F)F)C(F)(F)F)CC3C2)c(-c2ccccc2)c1 (centres unmarked) [Example 207, 1,1,1,3,3,3-hexafluoropropan-2-yl 5-((5-methyl-[1,1′-biphenyl]-2-yl)methyl)hexahydropyrrolo[3,4-c]pyrrole-2(1H)-carboxylate]	100 to 1000 nM	1000 to 10000 nM	1000 to 10000 nM	< 25%	< 25%	≥ 75%	> 75%
O=C(OC(C(F)(F)F)C(F)(F)F)N1CC2CN(Cc3cccc(C(F)(F)F)c3N3CCOCC3)CC2C1 (centres unmarked) [Example 45, 1,1,1,3,3,3-Hexafluoropropan-2-yl 5-[[2-(morpholin-4-yl)-3-(trifluoromethyl)phenyl]methyl]-octahydropyrrolo[3,4-c]pyrrole-2-carboxylate]	< 100 nM	1000 to 10000 nM	1000 to 10000 nM	< 25%	< 25%	≥ 75%	> 75%
